Reference: patent US20230136600A1, “Method and device for screening antigen epitope polypeptide” (priority 2020, published 2023)

Assays:
Balb/c mice = assay: Polypeptide chip-based vaccine immunogenicity scoring system; type: in vivo; design: key to A2: whether the 95 percentile of the last sampling is increased compared with the end point: Y = rise; N = no rise
[1] = test system: novel coronavirus (live coronavirus), vero cells; assay: In-vitro live virus neutralization experiment with serum of immunized mice (CPE method); type: in vivo, SARS-CoV-2; settings: Embodiment I: single peptide 100 μg + MF59 at Day 0, 14, 28, Balb/c mice, serum Day 35
[2] = Embodiment III, polypeptide-KLH
[3] = Embodiment III, polypeptide-KLH, Mix1-10
[4] = Embodiment III, polypeptide-KLH, total score = 5
[5] = Embodiment III, polypeptide-KLH, value of the whole mix
[6] = adjuvant AddaVax, 7 peptides co-immunized in mice
[7] = adjuvant Adju-Phos, 7 peptides co-immunized in mice
[8] = adjuvant Alhydrogel, 7 peptides co-immunized in mice
[9] = adjuvant Imjet Alumn, 7 peptides co-immunized in mice
[10] = adjuvant MA103A, 7 peptides co-immunized in mice
[11] = adjuvant MA103B, 7 peptides co-immunized in mice

## YGANKDGI (SARS-CoV-2) [SEQ ID NO:21]
Balb/c mice; [2]
  B1: D 0-D 14 95 percentile rise in the number of mice: 3
  B2: D 0-D 21 95 percentile rise in the number of mice: 3
  B3: D 14-D 21 95 percentile rise in the number of mice: 1
  B4: D 21-D 28 95 percentile rise in the number of mice: 1
Balb/c mice; [3]
  A1: difference between a highest median and a D 0 median (95 percentile): 0.08
  A2: whether the 95 percentile of the last sampling is increased compared with the end point: Y
Balb/c mice; Embodiment III, polypeptide-KLH, A*3 + B*2 + C*1
  Total single peptide: 14.8
Balb/c mice; [4]
  A: 95 percentile grouping number score: 3.5
  B: Mouse performance score: 1.9
Balb/c mice; [5]
  C1: #A timing-sequence response peptide fragment set: 230
  C2: #B vaccine specificity peptide fragment set: 251
  C3: Intersection of A and B: 1
  C4: Percentage of the intersection in set B: 0.398
  C: Timing-sequence response and specificity score: 0.5
Balb/c mice; [6]
  1) 95 percentile grouping number A: 3.5
  1) 95 percentile grouping number A1: 0.055
  2) Mouse performance B: 2.6
  2) Mouse performance B1: 0
  2) Mouse performance B2: 3
  2) Mouse performance B3: 5
  3) Timing-sequence response and specificity C: 0
  3) Timing-sequence response and specificity C1: 237
  3) Timing-sequence response and specificity C2: 1244
  3) Timing-sequence response and specificity C3: 0
  3) Timing-sequence response and specificity C4: 0.000
  Total single peptide: 15.7
Balb/c mice; [7]
  1) 95 percentile grouping number A: 4
  1) 95 percentile grouping number A1: 0.05
  2) Mouse performance B: 2.9
  2) Mouse performance B1: 3
  2) Mouse performance B2: 4
  2) Mouse performance B3: 3
  3) Timing-sequence response and specificity C: 0
  3) Timing-sequence response and specificity C1: 203
  3) Timing-sequence response and specificity C2: 1244
  3) Timing-sequence response and specificity C3: 0
  3) Timing-sequence response and specificity C4: 0.000
  Total single peptide: 17.8
Balb/c mice; [8]
  1) 95 percentile grouping number A: 1.5
  1) 95 percentile grouping number A1: 0.025
  2) Mouse performance B: 2.4
  2) Mouse performance B1: 4
  2) Mouse performance B2: 2
  2) Mouse performance B3: 2
  3) Timing-sequence response and specificity C: 1
  3) Timing-sequence response and specificity C1: 123
  3) Timing-sequence response and specificity C2: 1244
  3) Timing-sequence response and specificity C3: 2
  3) Timing-sequence response and specificity C4: 0.161
  Total single peptide: 9.8
Balb/c mice; [9]
  1) 95 percentile grouping number A: 2
  1) 95 percentile grouping number A1: 0.025
  2) Mouse performance B: 2.4
  2) Mouse performance B1: 0
  2) Mouse performance B2: 4
  2) Mouse performance B3: 4
  3) Timing-sequence response and specificity C: 1
  3) Timing-sequence response and specificity C1: 100
  3) Timing-sequence response and specificity C2: 1244
  3) Timing-sequence response and specificity C3: 3
  3) Timing-sequence response and specificity C4: 0.241
  Total single peptide: 11.3
Balb/c mice; [10]
  1) 95 percentile grouping number A: 3
  1) 95 percentile grouping number A1: 0.042
  2) Mouse performance B: 2.6
  2) Mouse performance B1: 4
  2) Mouse performance B2: 3
  2) Mouse performance B3: 2
  3) Timing-sequence response and specificity C: 1
  3) Timing-sequence response and specificity C1: 260
  3) Timing-sequence response and specificity C2: 1244
  3) Timing-sequence response and specificity C3: 3
  3) Timing-sequence response and specificity C4: 0.241
  Total single peptide: 14.7
Balb/c mice; [11]
  1) 95 percentile grouping number A: 2.5
  1) 95 percentile grouping number A1: 0.035
  2) Mouse performance B: 2
  2) Mouse performance B1: 4
  2) Mouse performance B2: 2
  2) Mouse performance B3: 1
  3) Timing-sequence response and specificity C: 0
  3) Timing-sequence response and specificity C1: 153
  3) Timing-sequence response and specificity C2: 1244
  3) Timing-sequence response and specificity C3: 0
  3) Timing-sequence response and specificity C4: 0.000
  Total single peptide: 11.5
[1]
  Neutralizing antibody positive rate (%): 40%
